Counter-ions that a name gives are not always drawn.
Experiments:
[1] = tested on: Toxoplasma gondii RH-β1 strain; test: microbe, parasite or virus in culture; assay type: cell-based; details: Toxoplasma gondii, read-out: IC50 assessed on Toxoplama Gondii
[2] = tested on: asynchronous 3D7 chloroquine-sensitive P. falciparum infected red blood cells; test: Labeled hypoxanthine incorporation assay (in vitro anti-malarial activity); assay type: cell-based; details: Plasmodium falciparum, 3D7, Erythrocyte, 3D7 chloroquine-sensitive strain, infected RBC, 48 h contact, [3H]-hypoxanthine incorporation; two independent experiments in duplicates; read-out: IC50 assessed on Plasmodium Falciparum

## CC(=O)n1c(=O)n(C2CCN(C(=O)OC[C@H](C)N(Cc3ccccc3)Cc3ccccc3)CC2)c2ccccc21 [Compound 65, (S)-2-(dibenzylamino)propyl 4-(1-acetyl-1,2-dihydro-2-oxobenzo[d]imidazol-3-yl)piperidine-1-carboxylate]
[1]
  IC50: 0.99 µM
[2]
  IC50: 2.94 µM

## O=C(OCCN(Cc1ccccc1)Cc1ccc(Br)cc1)N1CCC(n2c(=O)[nH]c3ccccc32)CC1 [Compound 115, 2-(benzyl(4-bromobenzyl)amino)ethyl 4-(2-oxo-2,3-dihydro-1H-benzo[d]imidazol-1-yl)piperidine-1-carboxylate hydrochloride]
[1]
  IC50: 3.2 µM
[2]
  IC50: 4.41 µM

## C[C@@H](COC(=O)N1CCCC(n2c(=O)[nH]c3ccccc32)C1)N(Cc1ccccc1)Cc1ccccc1 (stereo partly drawn) [Compound 16, (S)-2-(dibenzylamino)propyl 3-(1,2-dihydro-2-oxobenzo[d]imidazol-3-yl)piperidine-1-carboxylate]
[1]
  IC50: 2.35 µM
[2]
  IC50: 2.81 µM

## O=C(OCC(c1ccccc1)c1ccccc1)N1CCC(n2c(=O)[nH]c3ccccc32)CC1 [Compound 43, 2,2-diphenylethyl 4-(1,2-dihydro-2-oxobenzo[d]imidazol-3-yl)piperidine-1-carboxylate]
[1]
  IC50: 12 µM
[2]
  IC50: 8.33 µM

## C[C@@H](CNC(=S)N1CCC(n2c(=O)[nH]c3ccccc32)CC1)N(Cc1ccccc1)Cc1ccccc1 [Compound 91, N-((S)-2-(dibenzylamino)propyl)-4-(1,2-dihydro-2-oxobenzo[d]imidazol-3-yl)piperidine-1-carbothioamide]
[1]
  IC50: 7.5 µM
[2]
  IC50: 2.71 µM

## C[C@@H](COC(=O)N1CCC(n2c(=O)n(CCCC(=O)O)c3ccccc32)CC1)N(Cc1ccccc1)Cc1ccccc1 [Compound 78, (S)-4-(3-(1-((2-(dibenzylamino)propoxy)carbonyl)piperidin-4-yl)-2-oxo-2,3-dihydro-1H-benzo[d]imidazol-1-yl)butanoic acid]
[1]
  IC50: 1.7 µM
[2]
  IC50: 6.29 µM

## C[C@@H](COC(=O)N1CCC(N(c2ccccc2)S(=O)(=O)c2ccccc2)CC1)N(Cc1ccccc1)Cc1ccccc1 [Compound 90, (S)-2-(dibenzylamino)propyl 4-(N-phenylphenylsulfonamido)piperidine-1-carboxylate]
[1]
  IC50: 1.75 µM
[2]
  IC50: 0.525 µM

## O=C(OCCC1CCN(Cc2ccccc2)CC1)N1CCC(n2c(=O)[nH]c3ccccc32)CC1 [Compound 40, 2-(1-benzylpiperidin-4-yl)ethyl 4-(1,2-dihydro-2-oxobenzo[d]imidazol-3-yl)piperidine-1-carboxylate]
[1]
  IC50: 0.98 µM
[2]
  IC50: 8.16 µM

## C[C@@H](COC(=O)N1CCC(n2c(=O)[nH]c3ccccc32)CC1)N(Cc1ccccc1)Cc1cccc2ccccc12 [Compound 138, (S)-2-(benzyl(naphthalen-1-ylmethyl)amino)propyl 4-(2-oxo-2,3-dihydro-1H-benzo[d]imidazol-1-yl)piperidine-1-carboxylate hydrochloride]
[1]
  IC50: 3.75 µM
[2]
  IC50: 2.55 µM

## COc1ccc(NC2CCN(C(=O)OC[C@H](C)N(Cc3ccccc3)Cc3ccccc3)CC2)cc1 [Compound 81, (S)-2-(dibenzylamino)propyl 4-(4-methoxyphenylamino)piperidine-1-carboxylate]
[1]
  IC50: 10 µM
[2]
  IC50: 8.42 µM

## O=C(OC[C@@H]1CCCN1Cc1ccccc1)N1CCC(n2c(=O)[nH]c3ccccc32)CC1 [Compound 42, ((S)-1-benzylpyrrolidin-2-yl)methyl 4-(1,2-dihydro-2-oxobenzo[d]imidazol-3-yl)piperidine-1-carboxylate]
[1]
  IC50: 5 µM
[2]
  IC50: 18.8 µM

## C[C@@H](CN1CCC(n2c(=O)[nH]c3ccccc32)CC1)N(Cc1ccccc1)Cc1ccccc1 [Compound 50, 1-(1-((S)-2-(dibenzylamino)propyl)piperidin-4-yl)-1H-benzo[d]imidazol-2(3H)-one]
[1]
  IC50: 7 µM
[2]
  IC50: 3.34 µM

## O=c1[nH]c2ccccc2n1C1CCN(C(=S)OCCOCc2ccccc2)CC1 [Compound 47, O-2-(benzyloxy)ethyl 4-(1,2-dihydro-2-oxobenzo[d]imidazol-3-yl)piperidine-1-carbothioate]
[1]
  IC50: 1.13 µM
[2]
  IC50: 23.2 µM

## O=C(OCCCN(Cc1ccccc1)Cc1ccccn1)N1CCC(n2c(=O)[nH]c3ccccc32)CC1 [Compound 135, 3-(benzyl(pyridin-2-ylmethyl)amino)propyl 4-(2-oxo-2,3-dihydro-1H-benzo[d]imidazol-1-yl)piperidine-1-carboxylate hydrochloride]
[1]
  IC50: 2.3 µM
[2]
  IC50: 3.6 µM

## COc1cc(NC2CCN(C(=O)OC[C@H](C)N(Cc3ccccc3)Cc3ccccc3)CC2)cc(OC)c1OC [Compound 83, (S)-2-(dibenzylamino)propyl 4-(3,4,5-trimethoxyphenylamino)piperidine-1-carboxylate]
[1]
  IC50: 16 µM
[2]
  IC50: 3.09 µM

## C[C@@H](COC(=O)N1CCC(N(c2ccccc2)S(=O)(=O)c2cccs2)CC1)N(Cc1ccccc1)Cc1ccccc1 [Compound 159, (S)-2-(dibenzylamino)propyl 4-(N-phenylthiophen-2-ylsulfonamido)piperidine-1-carboxylate]
[1]
  IC50: 1 µM
[2]
  IC50: 0.861 µM

## O=C(OCCCN(Cc1ccccc1)Cc1cccc2ccccc12)N1CCC(n2c(=O)[nH]c3ccccc32)CC1 [Compound 144, 3-(benzyl(naphthalen-1-ylmethyl)amino)propyl 4-(2-oxo-2,3-dihydro-1H-benzo[d]imidazol-1-yl)piperidine-1-carboxylate hydrochloride]
[1]
  IC50: 2.7 µM
[2]
  IC50: 3.24 µM

## C[C@@H](COC(=O)N1CCC(N(C(=S)Nc2ccccc2)c2ccccc2)CC1)N(Cc1ccccc1)Cc1ccccc1 [Compound 165, (S)-2-(dibenzylamino)propyl 4-(1,3-diphenylthioureido)piperidine-1-carboxylate]
[1]
  IC50: 3 µM
[2]
  IC50: 1.25 µM

## COc1ccc(S(=O)(=O)N(c2ccccc2)C2CCN(C(=O)OC[C@H](C)N(Cc3ccccc3)Cc3ccccc3)CC2)cc1 [Compound 156, (S)-2-(dibenzylamino)propyl 4-(N-phenyl-4-methoxyphenylsulfonamido)piperidine-1-carboxylate]
[1]
  IC50: 4 µM
[2]
  IC50: 0.783 µM

## C[C@@H](COC(=O)N1CCC(n2c(=O)n(C)c3ccccc32)CC1)N(Cc1ccccc1)Cc1ccccc1 [Compound 69, (S)-2-(dibenzylamino)propyl 4-(1,2-dihydro-1-methyl-2-oxobenzo[d]imidazol-3-yl)piperidine-1-carboxylate]
[1]
  IC50: 0.2 µM
[2]
  IC50: 1.54 µM

## O=C(OCCN(CCCc1ccccc1)Cc1ccccc1)N1CCC(n2c(=O)[nH]c3ccccc32)CC1 [Compound 120, 2-(benzyl(3-phenylpropyl)amino)ethyl 4-(2-oxo-2,3-dihydro-1H-benzo[d]imidazol-1-yl)piperidine-1-carboxylate hydrochloride]
[1]
  IC50: 1.7 µM
[2]
  IC50: 3.61 µM

## COc1ccc(CN(CCOC(=O)N2CCC(n3c(=O)[nH]c4ccccc43)CC2)Cc2ccccc2)cc1 [Compound 121, 2-(benzyl(4-methoxybenzyl)amino)ethyl 4-(2-oxo-2,3-dihydro-1H-benzo[d]imidazol-1-yl)piperidine-1-carboxylate hydrochloride]
[1]
  IC50: 5 µM
[2]
  IC50: 3.49 µM

Source: patent US20100292214A1, “Compounds with Antiparasitic Activity, Applications thereof to the Treatment of Infectious Diseases Caused by Apicomplexans” (commissariat a l'Energie Atomique, priority 2007, published 2010)
